Data reported in US20220218852A1, “NOVEL RADIOLABELLED CXCR4-TARGETING COMPOUNDS FOR DIAGNOSIS AND THERAPY” (PROVINCIAL HEALTH SERVICES AUTHORITY, priority 2019, published 2022).
Where two headings read alike, the source gives them in different places. Positions of bridges follow the written chain, without caps; N, C: chain ends. Non-standard residues stand in square brackets, D forms with d. Residues, ends and D or L forms follow the SMILES beside them. Groups on a side chain read outwards from the residue. *: point of attachment. DOTA = O=C(O)CN1CCN(CC(=O)O)CCN(CC(=O)*)CCN(CC(=O)O)CC1; 2Nal = N[C@@H](Cc1ccc2ccccc2c1)C(=O)O; Lys(iPr) = CC(C)NCCCC[C@H](N)C(=O)O

Columns and labels:
[1] = Biodistribution in Daudi tumor-bearing mice; assay type: in vivo; conditions: male, NOD.Cg-Rag1^tm1MomII2rg^tm1Wjl/SzJ (NRG), mouse, iv, total radioactivity, Daudi xenograft bearing mice
Description: (§1) For Daudi, Z138, GRANTA519 and Jeko1 xenografts, male NOD.Cg-Rag1^tm1MomII2rg^tm1Wjl/SzJ (NRG) mice were subcutaneously inoculated on the left flank with 5×10^6 cells (100 μL; 1:1 ratio of PBS/Matrigel) and tumors were grown to a size of 200-500 mm^3. For PC-3 xenografts, male NOD.Cg-Rag1^tm1MomII2rg^tm1Wjl/SzJ (NRG) mice were subcutaneously inoculated on the left flank with 5×10^6 PC-3 cells (100 μL; 1:1 ratio of PBS/Matrigel) and tumors were grown to a size of 200-400 mm^3.
(§2) The mice were euthanized via CO2 inhalation while anesthetized with isoflurane. Tissues were harvested, washed in PBS, blotted dry, weighed, and measured on a Hidex AMG Automatic Gamma Counter.

[2] = system: Daudi Burkitt's lymphoma xenografts; assay: Biodistribution in Daudi tumor-bearing mice; assay type: in vivo; conditions: Daudi xenograft bearing mice
Description: as §1, §2

[3] = 1 h blocked (7.5 μg LY2510924 i.p. 15 min before tracer)

CC(C)NCCCC[C@@H]1NC(=O)[C@H](Cc2ccc(O)cc2)NC(=O)[C@H](Cc2ccccc2)NC(=O)CC[C@H](C(=O)N[C@@H](CCCCNC(C)C)C(=O)N[C@@H](CCCCNC(=O)[C@@H](CCC(=O)O)NC(=O)[C@@H](CCC(=O)O)NC(=O)[C@@H](CCC(=O)O)NC(=O)CN2CCN(CC(=O)O)CCN(CC(=O)O)CCN(CC(=O)O)CC2)C(N)=O)NC(=O)CNC(=O)[C@H](Cc2ccc3ccccc3c2)NC(=O)[C@@H](CCCNC(=N)N)NC1=O [[^68Ga]Ga-BL20, metal not drawn] (FY[Lys(iPr)][dR][2Nal]G[dE][Lys(iPr)]K([dE-dE-dE-DOTA])-NH2; lactam N-7)
tissue uptake at 1 h ([1]; Daudi tumour, 1 h, read-out: Biodistribution Daudi (tumour)): 9.07 %ID/g | tissue uptake at 1 h ([1]; Daudi tumour, 1 h blocked (7.5 μg LY2510924 i.p. 15 min before tracer), read-out: Biodistribution Daudi (tumour)): 0.59 %ID/g | tissue uptake at 2 h ([1]; Daudi tumour, read-out: Biodistribution Daudi (tumour)): 8.01 %ID/g | tissue uptake at 1 h ([1]; adrenals, 1 h, read-out: Biodistribution Adrenals): 0.35 %ID/g | tissue uptake at 1 h ([1]; adrenals, 1 h blocked (7.5 μg LY2510924 i.p. 15 min before tracer), read-out: Biodistribution Adrenals): 0.35 %ID/g | tissue uptake at 2 h ([1]; adrenals, read-out: Biodistribution Adrenals): 0.27 %ID/g | tissue uptake at 1 h ([1]; blood, 1 h, read-out: Biodistribution Blood): 0.42 %ID/g | tissue uptake at 1 h ([1]; blood, 1 h blocked (7.5 μg LY2510924 i.p. 15 min before tracer), read-out: Biodistribution Blood): 0.65 %ID/g | tissue uptake at 2 h ([1]; blood, read-out: Biodistribution Blood): 0.08 %ID/g | tissue uptake at 1 h ([1]; bone, 1 h, read-out: Biodistribution Bone): 0.17 %ID/g | tissue uptake at 1 h ([1]; bone, 1 h blocked (7.5 μg LY2510924 i.p. 15 min before tracer), read-out: Biodistribution Bone): 0.15 %ID/g | tissue uptake at 2 h ([1]; bone, read-out: Biodistribution Bone): 0.05 %ID/g | tissue uptake at 1 h ([1]; brain, 1 h, read-out: Biodistribution Brain): 0.01 %ID/g | tissue uptake at 1 h ([1]; brain, 1 h blocked (7.5 μg LY2510924 i.p. 15 min before tracer), read-out: Biodistribution Brain): 0.02 %ID/g | tissue uptake at 2 h ([1]; brain, read-out: Biodistribution Brain): 0.01 %ID/g | tissue uptake at 1 h ([1]; fat, 1 h, read-out: Biodistribution Fat): 0.06 %ID/g | tissue uptake at 1 h ([1]; fat, 1 h blocked (7.5 μg LY2510924 i.p. 15 min before tracer), read-out: Biodistribution Fat): 0.12 %ID/g | tissue uptake at 2 h ([1]; fat, read-out: Biodistribution Fat): 0.01 %ID/g | tissue uptake at 1 h ([1]; heart, 1 h, read-out: Biodistribution Heart): 0.15 %ID/g | tissue uptake at 1 h ([1]; heart, 1 h blocked (7.5 μg LY2510924 i.p. 15 min before tracer), read-out: Biodistribution Heart): 0.22 %ID/g | tissue uptake at 2 h ([1]; heart, read-out: Biodistribution Heart): 0.05 %ID/g | tissue uptake at 1 h ([1]; intestine, 1 h, read-out: Biodistribution Intestine): 0.21 %ID/g | tissue uptake at 1 h ([1]; intestine, 1 h blocked (7.5 μg LY2510924 i.p. 15 min before tracer), read-out: Biodistribution Intestine): 0.37 %ID/g | tissue uptake at 2 h ([1]; intestine, read-out: Biodistribution Intestine): 0.25 %ID/g | tissue uptake at 1 h ([1]; kidney, 1 h, read-out: Biodistribution Kidney): 3.58 %ID/g | tissue uptake at 1 h ([1]; kidney, 1 h blocked (7.5 μg LY2510924 i.p. 15 min before tracer), read-out: Biodistribution Kidney): 5.92 %ID/g | tissue uptake at 2 h ([1]; kidney, read-out: Biodistribution Kidney): 3.02 %ID/g | tissue uptake at 1 h ([1]; liver, 1 h, read-out: Biodistribution Liver): 0.58 %ID/g | tissue uptake at 1 h ([1]; liver, 1 h blocked (7.5 μg LY2510924 i.p. 15 min before tracer), read-out: Biodistribution Liver): 0.44 %ID/g | tissue uptake at 2 h ([1]; liver, read-out: Biodistribution Liver): 0.51 %ID/g | tissue uptake at 1 h ([1]; lung, 1 h, read-out: Biodistribution Lung): 0.51 %ID/g | tissue uptake at 1 h ([1]; lung, 1 h blocked (7.5 μg LY2510924 i.p. 15 min before tracer), read-out: Biodistribution Lung): 0.71 %ID/g | tissue uptake at 2 h ([1]; lung, read-out: Biodistribution Lung): 0.22 %ID/g | tissue uptake at 1 h ([1]; muscle, 1 h, read-out: Biodistribution Muscle): 0.08 %ID/g | tissue uptake at 1 h ([1]; muscle, 1 h blocked (7.5 μg LY2510924 i.p. 15 min before tracer), read-out: Biodistribution Muscle): 0.13 %ID/g | tissue uptake at 2 h ([1]; muscle, read-out: Biodistribution Muscle): 0.02 %ID/g | tissue uptake at 1 h ([1]; pancreas, 1 h, read-out: Biodistribution Pancreas): 0.11 %ID/g | tissue uptake at 1 h ([1]; pancreas, 1 h blocked (7.5 μg LY2510924 i.p. 15 min before tracer), read-out: Biodistribution Pancreas): 0.16 %ID/g | tissue uptake at 2 h ([1]; pancreas, read-out: Biodistribution Pancreas): 0.04 %ID/g | tissue uptake at 1 h ([1]; spleen, 1 h, read-out: Biodistribution Spleen): 0.49 %ID/g | tissue uptake at 1 h ([1]; spleen, 1 h blocked (7.5 μg LY2510924 i.p. 15 min before tracer), read-out: Biodistribution Spleen): 0.3 %ID/g | tissue uptake at 2 h ([1]; spleen, read-out: Biodistribution Spleen): 0.21 %ID/g | tissue uptake at 1 h ([1]; stomach, 1 h, read-out: Biodistribution Stomach): 0.05 %ID/g | tissue uptake at 1 h ([1]; stomach, 1 h blocked (7.5 μg LY2510924 i.p. 15 min before tracer), read-out: Biodistribution Stomach): 0.24 %ID/g | tissue uptake at 2 h ([1]; stomach, read-out: Biodistribution Stomach): 0.05 %ID/g | tissue uptake at 1 h ([1]; testes, 1 h, read-out: Biodistribution Testes): 0.15 %ID/g | tissue uptake at 1 h ([1]; testes, 1 h blocked (7.5 μg LY2510924 i.p. 15 min before tracer), read-out: Biodistribution Testes): 0.2 %ID/g | tissue uptake at 2 h ([1]; testes, read-out: Biodistribution Testes): 0.05 %ID/g | Ratio Tumour:Blood ([2]; 1 h): 22.78 | Ratio Tumour:Bone ([2]; 1 h): 54.57 | Ratio Tumour:Liver ([2]; 1 h): 15.68 | Ratio Tumour:Lung ([2]; 1 h): 18.12 | Ratio Tumour:Muscle ([2]; 1 h): 125.40 | Ratio Tumour:Spleen ([2]; 1 h): 18.55 | Ratio Tumour:Blood [2, 3]: 0.90 | Ratio Tumour:Bone [2, 3]: 3.88 | Ratio Tumour:Liver [2, 3]: 1.34 | Ratio Tumour:Lung [2, 3]: 0.82 | Ratio Tumour:Muscle [2, 3]: 4.49 | Ratio Tumour:Spleen [2, 3]: 1.96 | Ratio Tumour:Blood ([2]; 2 h): 113.17 | Ratio Tumour:Bone ([2]; 2 h): 189.39 | Ratio Tumour:Liver ([2]; 2 h): 15.57 | Ratio Tumour:Lung ([2]; 2 h): 37.40 | Ratio Tumour:Muscle ([2]; 2 h): 346.93 | Ratio Tumour:Spleen ([2]; 2 h): 41.58
